# Assay results as given in US20080146617A1, “Methods of treating inflammatory diseases” (Roche Palo Alto LLC, priority 2006, published 2008).
# Where two headings read alike, the source gives them in different places.
# Legend:
# Assay in all cases: KinomeScan kinase profiling
# Assay type in all cases: binding
# p38-alpha = biological target: T1, p38-alpha (Homo sapiens, UniProt Q16539)
# T1 construct: purchased Ambit Biosciences (San Diego, Calif.)
# CSNK1E = biological target: T2, CSNK1E (Homo sapiens, UniProt P49674)
# T2 construct: purchased Ambit Biosciences (San Diego, Calif.)
# T2 sequence (P49674 whole entry): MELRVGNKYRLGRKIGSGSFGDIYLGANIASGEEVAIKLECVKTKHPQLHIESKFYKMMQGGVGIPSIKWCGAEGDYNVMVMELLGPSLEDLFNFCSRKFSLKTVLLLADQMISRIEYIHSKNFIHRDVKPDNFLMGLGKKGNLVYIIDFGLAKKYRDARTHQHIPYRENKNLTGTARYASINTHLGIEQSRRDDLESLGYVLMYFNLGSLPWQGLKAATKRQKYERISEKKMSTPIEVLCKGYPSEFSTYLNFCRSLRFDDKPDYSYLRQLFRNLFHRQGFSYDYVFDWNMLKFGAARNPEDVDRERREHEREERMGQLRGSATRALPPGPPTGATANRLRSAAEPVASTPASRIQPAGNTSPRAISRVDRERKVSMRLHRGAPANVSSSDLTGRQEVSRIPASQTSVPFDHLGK
# LIMK1 = biological target: T3, LIMK1 (Homo sapiens, UniProt P53667)
# T3 construct: purchased Ambit Biosciences (San Diego, Calif.)
# DAPK2 = biological target: T4, DAPK2 (Homo sapiens, UniProt Q9UIK4)
# T4 construct: purchased Ambit Biosciences (San Diego, Calif.)
# p38-beta = biological target: T5, p38-beta (Homo sapiens, UniProt Q15759)
# T5 construct: purchased Ambit Biosciences (San Diego, Calif.)
# PTK6 = biological target: T6, PTK6 (Homo sapiens, UniProt Q13882)
# T6 construct: purchased Ambit Biosciences
# EPHA3 = biological target: T7, EPHA3 (Homo sapiens, UniProt P29320)
# T7 construct: purchased Ambit Biosciences (San Diego, Calif.)
# STK10 = biological target: T8, STK10 (Homo sapiens, UniProt O94804)
# T8 construct: purchased Ambit Biosciences
# Excerpt: (§1) The selectivity of a given CK1δ, CK1ε or CK1δ-CK1ε inhibitor compound can be determined by testing the compound against a panel of known kinases. An example of such a kinase profiling technology is the “KinomeScan” from Ambit Biosciences in which compounds can be screened for their modulatory activities against more than 200 known kinases.
# CAMK2D = biological target: T9, CAMK2D (Homo sapiens, UniProt Q13557)
# T9 construct: purchased Ambit Biosciences (San Diego, Calif.)
# Excerpt: as §1
# SRC = biological target: T10, SRC (Homo sapiens, UniProt P12931)
# T10 construct: purchased Ambit Biosciences
# Excerpt: as §1
# PDGFRA = biological target: T11, PDGFRA (Homo sapiens, UniProt P16234)
# T11 construct: purchased Ambit Biosciences (San Diego, Calif.)
# Excerpt: as §1
# CLK4 = biological target: T12, CLK4 (Homo sapiens, UniProt Q9HAZ1)
# T12 construct: purchased Ambit Biosciences (San Diego, Calif.)
# Excerpt: as §1
# EPHA7 = biological target: T13, EPHA7 (Homo sapiens, UniProt Q15375)
# T13 construct: purchased Ambit Biosciences (San Diego, Calif.)
# Excerpt: as §1
# AKT1 = biological target: T14, AKT1 (Homo sapiens, UniProt P31749)
# T14 construct: purchased Ambit Biosciences (San Diego, Calif.)
# Excerpt: as §1
# PDGFRB = biological target: T15, PDGFRB (Homo sapiens, UniProt P09619)
# T15 construct: purchased Ambit Biosciences (San Diego, Calif.)
# Excerpt: as §1
# AAK1 = biological target: T16, AAK1 (Homo sapiens, UniProt Q2M2I8)
# T16 construct: purchased Ambit Biosciences (San Diego, Calif.)
# Excerpt: as §1
# PDPK1 = biological target: T17, PDPK1 (Homo sapiens, UniProt O15530)
# T17 construct: purchased Ambit Biosciences (San Diego, Calif.)
# T17 sequence (O15530 whole entry): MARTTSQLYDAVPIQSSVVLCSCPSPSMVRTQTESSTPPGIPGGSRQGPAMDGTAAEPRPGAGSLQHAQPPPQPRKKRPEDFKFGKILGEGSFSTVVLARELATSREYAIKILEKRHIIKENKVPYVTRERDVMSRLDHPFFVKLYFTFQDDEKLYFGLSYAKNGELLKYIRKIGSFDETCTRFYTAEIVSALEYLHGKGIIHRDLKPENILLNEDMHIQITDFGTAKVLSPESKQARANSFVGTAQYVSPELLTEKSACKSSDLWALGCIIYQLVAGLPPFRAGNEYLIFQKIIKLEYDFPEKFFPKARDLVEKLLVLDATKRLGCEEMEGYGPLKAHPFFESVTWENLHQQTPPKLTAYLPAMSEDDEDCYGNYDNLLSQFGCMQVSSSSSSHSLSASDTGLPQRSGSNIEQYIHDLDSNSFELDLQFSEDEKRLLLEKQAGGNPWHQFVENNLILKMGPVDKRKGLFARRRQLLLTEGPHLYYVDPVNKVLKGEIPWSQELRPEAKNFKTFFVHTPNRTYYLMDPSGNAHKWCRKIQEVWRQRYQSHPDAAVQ
# Excerpt: as §1
# CAMK2A = biological target: T18, CAMK2A (Homo sapiens, UniProt Q9UQM7)
# T18 construct: purchased Ambit Biosciences (San Diego, Calif.)
# T18 sequence (Q9UQM7 whole entry): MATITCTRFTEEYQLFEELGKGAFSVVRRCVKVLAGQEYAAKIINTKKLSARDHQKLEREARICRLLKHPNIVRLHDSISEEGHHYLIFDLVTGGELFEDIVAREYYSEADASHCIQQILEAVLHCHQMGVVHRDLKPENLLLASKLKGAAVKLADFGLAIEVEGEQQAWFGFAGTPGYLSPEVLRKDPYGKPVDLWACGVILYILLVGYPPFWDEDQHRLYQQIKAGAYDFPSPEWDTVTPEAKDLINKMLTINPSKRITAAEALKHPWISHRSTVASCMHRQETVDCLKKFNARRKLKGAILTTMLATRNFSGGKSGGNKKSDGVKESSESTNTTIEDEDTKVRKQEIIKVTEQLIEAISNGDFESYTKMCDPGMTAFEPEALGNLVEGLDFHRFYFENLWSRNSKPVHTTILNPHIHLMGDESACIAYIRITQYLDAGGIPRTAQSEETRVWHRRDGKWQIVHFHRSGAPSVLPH
# Excerpt: as §1
# FLT3 = biological target: T19, FLT3 (Homo sapiens, UniProt P36888)
# T19 construct: purchased Ambit Biosciences (San Diego, Calif.)
# Excerpt: as §1
# BMX = biological target: T20, BMX (Homo sapiens, UniProt P51813)
# T20 construct: purchased Ambit Biosciences (San Diego, Calif.)
# Excerpt: as §1
# CAMK1 = biological target: T21, CAMK1 (Homo sapiens, UniProt Q14012)
# T21 construct: purchased Ambit Biosciences (San Diego, Calif.)
# Excerpt: as §1
# BTK = biological target: T22, BTK (Homo sapiens, UniProt Q06187)
# T22 construct: purchased Ambit Biosciences (San Diego, Calif.)
# Excerpt: as §1
# ITK = biological target: T23, ITK (Homo sapiens, UniProt Q08881)
# T23 construct: purchased Ambit Biosciences (San Diego, Calif.)
# Excerpt: as §1
# FRK = biological target: T24, FRK (Homo sapiens, UniProt P42685)
# T24 construct: purchased Ambit Biosciences (San Diego, Calif.)
# Excerpt: as §1
# YES = biological target: T25, YES (Homo sapiens, UniProt P07947)
# T25 construct: purchased Ambit Biosciences (San Diego, Calif.)
# Excerpt: as §1
# CAMKK1 = biological target: T26, CAMKK1 (Homo sapiens, UniProt Q8N5S9)
# T26 construct: purchased Ambit Biosciences (San Diego, Calif.)
# Excerpt: as §1
# STK17B = biological target: T27, STK17B (Homo sapiens, UniProt O94768)
# T27 construct: purchased Ambit Biosciences
# T27 sequence (O94768 whole entry): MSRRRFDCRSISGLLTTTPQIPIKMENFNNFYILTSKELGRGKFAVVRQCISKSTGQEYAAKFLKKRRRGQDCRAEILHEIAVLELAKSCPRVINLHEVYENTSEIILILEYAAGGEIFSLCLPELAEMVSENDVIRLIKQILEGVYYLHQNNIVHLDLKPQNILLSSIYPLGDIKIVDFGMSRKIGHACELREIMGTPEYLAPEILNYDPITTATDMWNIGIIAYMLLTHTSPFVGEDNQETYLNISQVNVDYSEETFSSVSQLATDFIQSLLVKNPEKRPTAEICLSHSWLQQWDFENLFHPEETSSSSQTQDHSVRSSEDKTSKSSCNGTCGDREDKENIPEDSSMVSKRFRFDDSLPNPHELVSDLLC
# Excerpt: as §1
# ACK1 = biological target: T28, ACK1 (Homo sapiens, UniProt Q07912)
# T28 construct: purchased Ambit Biosciences (San Diego, Calif.)
# Excerpt: as §1
# ROS1 = biological target: T29, ROS1 (Homo sapiens, UniProt P08922)
# T29 construct: purchased Ambit Biosciences
# T29 sequence (P08922 28-2347): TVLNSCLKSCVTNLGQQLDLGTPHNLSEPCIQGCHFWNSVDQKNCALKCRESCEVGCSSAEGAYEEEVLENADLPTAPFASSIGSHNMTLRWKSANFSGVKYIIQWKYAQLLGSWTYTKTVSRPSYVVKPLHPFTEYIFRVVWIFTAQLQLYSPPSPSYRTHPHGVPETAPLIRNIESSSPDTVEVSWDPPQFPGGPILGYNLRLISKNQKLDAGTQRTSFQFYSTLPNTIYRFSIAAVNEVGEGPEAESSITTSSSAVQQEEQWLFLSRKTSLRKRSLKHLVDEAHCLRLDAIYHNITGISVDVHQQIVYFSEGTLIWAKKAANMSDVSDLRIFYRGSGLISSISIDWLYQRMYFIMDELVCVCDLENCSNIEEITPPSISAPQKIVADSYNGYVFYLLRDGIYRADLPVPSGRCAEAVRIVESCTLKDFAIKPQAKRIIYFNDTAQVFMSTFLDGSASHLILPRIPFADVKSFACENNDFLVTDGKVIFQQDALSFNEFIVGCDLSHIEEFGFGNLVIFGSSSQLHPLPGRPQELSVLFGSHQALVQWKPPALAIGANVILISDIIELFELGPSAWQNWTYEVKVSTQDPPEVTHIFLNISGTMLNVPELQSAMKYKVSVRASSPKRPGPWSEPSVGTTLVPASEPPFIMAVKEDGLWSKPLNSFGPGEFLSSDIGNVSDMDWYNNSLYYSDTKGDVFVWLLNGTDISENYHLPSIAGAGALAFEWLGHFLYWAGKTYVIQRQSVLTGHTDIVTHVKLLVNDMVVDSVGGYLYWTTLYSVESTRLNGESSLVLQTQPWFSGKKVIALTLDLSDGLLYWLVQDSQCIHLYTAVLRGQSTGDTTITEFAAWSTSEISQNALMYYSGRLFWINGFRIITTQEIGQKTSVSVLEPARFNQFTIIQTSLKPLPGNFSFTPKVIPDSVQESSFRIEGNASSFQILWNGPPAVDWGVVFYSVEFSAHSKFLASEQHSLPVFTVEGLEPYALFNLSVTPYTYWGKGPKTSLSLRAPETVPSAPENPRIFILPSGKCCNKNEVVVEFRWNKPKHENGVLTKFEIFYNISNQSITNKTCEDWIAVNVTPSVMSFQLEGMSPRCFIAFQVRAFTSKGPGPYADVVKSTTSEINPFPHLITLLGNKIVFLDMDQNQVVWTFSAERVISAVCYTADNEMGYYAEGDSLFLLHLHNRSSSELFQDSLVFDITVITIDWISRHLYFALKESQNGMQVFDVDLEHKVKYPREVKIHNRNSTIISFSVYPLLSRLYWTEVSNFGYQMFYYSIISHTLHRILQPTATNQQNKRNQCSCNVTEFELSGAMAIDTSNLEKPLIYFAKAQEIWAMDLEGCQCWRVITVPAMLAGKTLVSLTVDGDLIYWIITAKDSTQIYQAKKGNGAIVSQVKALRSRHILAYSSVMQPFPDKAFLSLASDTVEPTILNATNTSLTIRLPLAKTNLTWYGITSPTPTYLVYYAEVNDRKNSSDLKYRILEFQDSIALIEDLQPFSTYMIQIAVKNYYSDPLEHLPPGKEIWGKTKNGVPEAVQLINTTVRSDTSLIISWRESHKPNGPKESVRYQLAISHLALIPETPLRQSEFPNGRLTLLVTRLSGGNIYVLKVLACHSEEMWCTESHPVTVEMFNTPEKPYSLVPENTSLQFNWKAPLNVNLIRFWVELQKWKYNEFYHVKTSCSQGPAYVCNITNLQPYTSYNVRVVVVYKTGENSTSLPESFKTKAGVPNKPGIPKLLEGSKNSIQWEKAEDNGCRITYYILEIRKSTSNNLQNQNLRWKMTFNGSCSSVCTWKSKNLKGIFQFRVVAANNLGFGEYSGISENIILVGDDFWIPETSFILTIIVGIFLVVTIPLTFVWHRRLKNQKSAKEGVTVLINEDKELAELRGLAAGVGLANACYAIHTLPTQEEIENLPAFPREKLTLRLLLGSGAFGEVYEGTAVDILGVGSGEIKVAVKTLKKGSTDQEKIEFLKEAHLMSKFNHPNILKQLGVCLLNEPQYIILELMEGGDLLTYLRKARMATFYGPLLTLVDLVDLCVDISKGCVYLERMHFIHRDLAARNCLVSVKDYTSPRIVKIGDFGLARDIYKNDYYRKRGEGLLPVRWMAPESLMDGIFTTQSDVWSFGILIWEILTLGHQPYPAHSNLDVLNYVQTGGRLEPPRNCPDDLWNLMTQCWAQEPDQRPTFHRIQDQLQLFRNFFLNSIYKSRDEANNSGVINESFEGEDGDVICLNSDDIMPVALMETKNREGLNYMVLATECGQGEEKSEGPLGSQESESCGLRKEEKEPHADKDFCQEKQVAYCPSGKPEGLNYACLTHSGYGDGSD
# Excerpt: as §1
# STK4 = biological target: T30, STK4 (Homo sapiens, UniProt Q13043)
# T30 construct: purchased Ambit Biosciences
# FGFR2 = biological target: T31, FGFR2 (Homo sapiens, UniProt P21802)
# T31 construct: purchased Ambit Biosciences (San Diego, Calif.)
# AURKA = biological target: T32, AURKA (Homo sapiens, UniProt O14965)
# T32 construct: purchased Ambit Biosciences (San Diego, Calif.)
# T32 sequence (O14965 whole entry): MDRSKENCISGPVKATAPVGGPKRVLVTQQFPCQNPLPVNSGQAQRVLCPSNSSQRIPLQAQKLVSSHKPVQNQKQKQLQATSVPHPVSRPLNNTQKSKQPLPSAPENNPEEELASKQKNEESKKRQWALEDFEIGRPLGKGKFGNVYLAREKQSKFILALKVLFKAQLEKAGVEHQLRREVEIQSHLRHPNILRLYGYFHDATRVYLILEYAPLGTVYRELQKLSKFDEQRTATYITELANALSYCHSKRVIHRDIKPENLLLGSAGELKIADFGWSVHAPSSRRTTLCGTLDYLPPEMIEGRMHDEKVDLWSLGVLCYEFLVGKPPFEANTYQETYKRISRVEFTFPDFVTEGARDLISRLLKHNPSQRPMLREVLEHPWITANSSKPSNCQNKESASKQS
# JNK2 = biological target: T33, JNK2 (Homo sapiens, UniProt P45984)
# T33 construct: purchased Ambit Biosciences (San Diego, Calif.)
# STK3 = biological target: T34, STK3 (Homo sapiens, UniProt Q13188)
# T34 construct: purchased Ambit Biosciences
# T34 sequence (Q13188 whole entry): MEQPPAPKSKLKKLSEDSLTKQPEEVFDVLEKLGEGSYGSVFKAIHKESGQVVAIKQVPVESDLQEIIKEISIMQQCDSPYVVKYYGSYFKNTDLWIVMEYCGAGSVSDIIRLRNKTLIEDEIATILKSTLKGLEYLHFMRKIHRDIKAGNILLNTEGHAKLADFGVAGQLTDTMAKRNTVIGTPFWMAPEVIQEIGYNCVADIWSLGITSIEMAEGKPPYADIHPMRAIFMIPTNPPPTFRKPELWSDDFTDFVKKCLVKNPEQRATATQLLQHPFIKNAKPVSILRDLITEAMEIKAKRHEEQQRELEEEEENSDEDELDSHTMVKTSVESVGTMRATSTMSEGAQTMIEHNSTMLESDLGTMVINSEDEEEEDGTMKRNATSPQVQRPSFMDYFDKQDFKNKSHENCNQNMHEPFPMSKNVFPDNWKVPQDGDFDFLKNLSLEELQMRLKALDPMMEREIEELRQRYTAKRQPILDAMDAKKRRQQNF
# AMPK-alpha1 = biological target: T35, AMPK-alpha1 (Homo sapiens, UniProt Q13131)
# T35 construct: purchased Ambit Biosciences (San Diego, Calif.)
# FGR = biological target: T36, FGR (Homo sapiens, UniProt P09769)
# T36 construct: purchased Ambit Biosciences (San Diego, Calif.)
# FGFR3 = biological target: T37, FGFR3 (Homo sapiens, UniProt P22607)
# T37 construct: purchased Ambit Biosciences (San Diego, Calif.)
# RPS6KA3 = biological target: T38, RPS6KA3 (Homo sapiens, UniProt P51812)
# T38 construct: purchased Ambit Biosciences
# CLK2 = biological target: T39, CLK2 (Homo sapiens, UniProt P49760)
# T39 construct: purchased Ambit Biosciences (San Diego, Calif.)
Structure (SMILES),inhibition at 10 µM (p38-alpha) [%],"% Inhibition (CSNK1E; 10 μM, CSNK1E (CK1ε isoform)) [%]",inhibition at 10 µM (LIMK1) [%],inhibition at 10 µM (DAPK2) [%],inhibition at 10 µM (p38-beta) [%],inhibition at 10 µM (PTK6) [%],inhibition at 10 µM (EPHA3) [%],inhibition at 10 µM (STK10) [%],inhibition at 10 µM (CAMK2D) [%],inhibition at 10 µM (SRC) [%],inhibition at 10 µM (PDGFRA) [%],inhibition at 10 µM (CLK4) [%],inhibition at 10 µM (EPHA7) [%],inhibition at 10 µM (AKT1) [%],inhibition at 10 µM (PDGFRB) [%],inhibition at 10 µM (AAK1) [%],inhibition at 10 µM (PDPK1) [%],inhibition at 10 µM (CAMK2A) [%],inhibition at 10 µM (FLT3) [%],inhibition at 10 µM (BMX) [%],further results
"NC(=O)c1ccc(-c2nc(-c3ccc4c(c3)OCCO4)c(-c3ccccn3)[nH]2)cc1 [D4476, 4-[4-(2,3-Dihydro-benzo[1,4]dioxin-6-yl)-5-pyridin-2-yl-1H-imidazol-2-yl]benzamide]",< 50,100,< 50,< 50,< 50,< 50,< 50,< 50,< 50,< 50,< 50,< 50,< 50,< 50,< 50,< 50,< 50,< 50,< 50,< 50,inhibition at 10 µM (CSNK1E): 100%; inhibition at 10 µM (CAMK1): < 50%; inhibition at 10 µM (BTK): < 50%; inhibition at 10 µM (ITK): < 50%; inhibition at 10 µM (FRK): < 50%; inhibition at 10 µM (YES): < 50%; inhibition at 10 µM (CAMKK1): < 50%; inhibition at 10 µM (STK17B): < 50%; inhibition at 10 µM (ACK1): < 50%; inhibition at 10 µM (ROS1): < 50%; inhibition at 10 µM (STK4): < 50%; inhibition at 10 µM (FGFR2): < 50%; inhibition at 10 µM (AURKA): < 50%; inhibition at 10 µM (JNK2): < 50%; inhibition at 10 µM (STK3): < 50%; inhibition at 10 µM (AMPK-alpha1): < 50%; inhibition at 10 µM (FGR): < 50%; inhibition at 10 µM (FGFR3): < 50%; inhibition at 10 µM (RPS6KA3): < 50%; inhibition at 10 µM (CLK2): < 50%
"NC(=O)c1ccc(-c2nc(-c3ccc4c(c3)OCO4)c(-c3ccccn3)[nH]2)cc1 [SB431542, 4-(4-benzo-[1,3]dioxol-5-yl-5-pyridin-2-yl-1H-imidazol-2-yl)benzamide]",< 50,100,< 50,< 50,< 50,< 50,< 50,< 50,< 50,< 50,< 50,< 50,< 50,< 50,< 50,< 50,< 50,< 50,< 50,< 50,"inhibition at 10 µM (CSNK1E; 10 μM, CSNK1E (CK1ε isoform), read-out: % Inhibition): 100%; inhibition at 10 µM (CAMK1): < 50%; inhibition at 10 µM (BTK): < 50%; inhibition at 10 µM (ITK): < 50%; inhibition at 10 µM (FRK): < 50%; inhibition at 10 µM (YES): < 50%; inhibition at 10 µM (CAMKK1): < 50%; inhibition at 10 µM (STK17B): < 50%; inhibition at 10 µM (ACK1): < 50%; inhibition at 10 µM (ROS1): < 50%; inhibition at 10 µM (STK4): < 50%; inhibition at 10 µM (FGFR2): < 50%; inhibition at 10 µM (AURKA): < 50%; inhibition at 10 µM (JNK2): < 50%; inhibition at 10 µM (STK3): < 50%; inhibition at 10 µM (AMPK-alpha1): < 50%; inhibition at 10 µM (FGR): < 50%; inhibition at 10 µM (FGFR3): < 50%; inhibition at 10 µM (RPS6KA3): < 50%; inhibition at 10 µM (CLK2): < 50%"
